Source: US12065435B2, “Compounds for the treatment of glycogen storage disorders” (HADASIT MEDICAL RESEARCH SERVICES AND DEVELOPMENT LTD., priority 2017, dated 2024)

Experiments:
APBD skin fibroblasts = assay: Multi-parametric cell-phenotypic characterization of APBD skin fibroblasts; assay type: cell-based, human; conditions: APBD fibroblasts treated with compound
From the text: FIG. 10 presents a graph showing multi-parametric cell-phenotypic characterization of healthy control (HC) and APBD skin fibroblasts. Upper panel: the extent of deviation from healthy control of the cell features shown, ordered by the amount of deviation (-log (P value)). […] The different comparisons analyzed are shown at the bottom of the panel.
Next, the multi-parametric analysis of compound A, one of the compounds tested in the Gbe^Y329S/Y329S mouse model for APBD was completed. The different cell features in APBD fibroblasts of several patients were ordered according to the extent of their deviation from the same features in healthy fibroblasts.

[1] = tested on: APBD modeling mice (Gbe^Y329S/Y329S mouse model); assay: Motor parameters in APBD modeling mice; assay type: in vivo; conditions: for ameliorating effect on motor parameters (summary): tested every two weeks
Protocol: This study was conducted in compounds A and B according to the schemes described in Tables 8 and 9, respectively.
As vehicle control, 0.1% DMSO was used. It is noteworthy that, in order to have a statistically significant number of animals, compound A was tested in male mice and compound B in female mice (no mixed cages were allowed).
APBD is an autosomal disease with no gender related symptoms and it was presumed that this experimental design is optimal. The mode of delivery of the compounds was intravenous (IV) injection for the first month, followed by subcutaneous injection due to lack of injection space and scaring in animal tails.
Tables 8 and 9 describe the study design for compounds A and B. both compounds were tested at the age of 4 months, two months prior to disease onset, in order to assess possible prophylactic effects, and at the age of 6 months, at disease onset, in order to assess corrective effects.
The effect of compounds A and B on various motor parameters was tested every two weeks. The results are shown in herein.
The point of reference is one time point prior to treatment initiation. Please note, since animals first treated with the compounds at 6 months of age were not injected at all before that age, they could not have been compared to animals pre-injected with vehicle. Therefore, the duration of the longitudinal studies for the cohorts first treated at the age of 6 months is shorter than that of the animals first treated at 4 months of age.

[2] = tested on: polyglucosan body (PB) in APBD patient-derived fibroblasts; assay: High content (image-based) PAS screening assay for polyglucosan bodies; assay type: cell-based, human; conditions: 0, 1, 5, 10 and 50 μM
Protocol: All the steps of the assay were performed automatically using a Freedom Evo 150 liquid handling robot (Tecan). APBD patient-derived fibroblasts were seeded at a density of 800 cells/well in DMEM (Gibco) supplemented with 1 mM sodium pyruvate (Gibco), 1% antibiotics (Biological Industries, Israel) and 5% fetal bovine serum (Hyclone) into 384 well microclear plates (Greiner). The plates were transferred by the robotic arm (RoMa) into an automated incubator (Liconic), integrated with the robotic system, where they were incubated at 37° C. with 5% CO2. Following 24 h incubation, the medium was replaced by the robot using medium supplemented with 10 μM of each screened compound (0.1% DMSO final concentration, all prepared by the robot). The screened compounds were part of the Diverset CL collection purchased from ChemBridge (10,084 out of 50,000 molecules).
Next, these cells were cultured for another 24 h in the automated incubator, and, using the robot, washed them with PBS (Biological Industries, Israel), the cells were fixed with 4% paraformaldehyde (PFA), washed again with PBS, neutralized the previously added PFA by ammonium chloride (Sigma Aldrich), washed with PBS, permeabilized with 0.1% Triton X-100 (Sigma Aldrich), and washed again with PBS.
Following this, a robot was used to treat the fixed cells with 0.5 g/dl diastase (or amylase, Sigma Aldrich) for 5 minutes at 37° C. in the automated incubator, wash with PBS, stained with PAS (Merck), Hoechst 33342 (Sigma Aldrich) and Cell Mask Deep Red (Molecular Probes) and wash with PBS. Images of stained cells were then acquired by the IN Cell Analyzer 2000 (GE Healthcare) and analyzed using the IN Cell Investigator (GE Healthcare) applying an algorithm that quantified the PAS signal within each Cell Mask stained cell.
Images were segmented based on the Cell Mask signal which was linked with the segmentation of the nuclei, employing an empirically established sensitivity and kernel size for allowing the best segmentation. Once these nucleus-cytoplasm complex objects were selected, the software calculated the number of these objects (cell number) as well as the intensity of the PAS signal within each of them. All the assay parameters (including the acquisition exposure times, objective, and the analysis parameters) were kept constant throughout the whole screening campaign for allowing comparison of signals obtained from different batches of assay within the campaign.
The assay was performed as mentioned above, but with compound concentrations of 1, 5, 10, and 50 μM, instead of a constant concentration of 10 μM.
The discarded data was presumably associated with cells affected by toxic compounds. In the remaining data, the measured population mean PB intensity was normalized. Based on a series of images used for training, compounds were considered as positive only where following treatment the normalized PB mean intensity was at least under −1.2 z-score of the scale. Following this approach, 85 potential hits out of the 10,084 screened compounds were selected (0.84%).

APBD mice = conditions: mouse, in vivo
[3] = treated from 4 months of age (2 months before onset), two way ANOVA with repeated measures
[4] = treated from 4 months of age, Bonferroni's multiple comparisons test
[5] = treated from 6 months of age (at onset), two way ANOVA with repeated measures
[6] = treated from 6 months of age, Bonferroni's multiple comparisons test

COCCN(Cc1sccc1C)C(=O)c1cc(C)[nH]c(=O)c1 [UDP #4, N-(2-methoxyethyl)-6-methyl-N-[(3-methyl-2-thienyl)methyl]-2-oxo-1,2-dihydropyridine-4-carboxamide]
area of respiring (TMRE labeled) mitochondria (APBD skin fibroblasts): decreased
nuclear intensity (APBD skin fibroblasts): increased
apathy, mobility and responsiveness to experimenter ([1]; 250 mg/kg, IV first month then subcutaneous): less apathic, more mobile and more responsive to intervention by the experimenter
ameliorating effect on motor parameters (summary) ([1]; 250 mg/kg, IV first month then subcutaneous, listed as Compound A): ameliorate extension reflex, grip strength and gait
ameliorating effect on motor parameters (summary) ([1]; 250 mg/kg, IV first month then subcutaneous, listed as compound A): improves the uniformity of step alteration
average duration in movement in an open field test vs vehicle [1, 3]: not different from vehicle (p<0.1)
average front paw grip strength vs vehicle [1, 3]: not different from vehicle (p<0.1)
average gait length vs vehicle [1, 3]: not different from vehicle (p<0.1)
average gait width vs vehicle [1, 3]: not different from vehicle (p<0.1)
average latency to fall off a metal wire vs vehicle [1, 3]: not different from vehicle (p<0.1)
average latency to fall off a rotating cylinder (rotarod) vs vehicle [1, 3]: not different from vehicle (p<0.1)
average regularity of step distance (Coefficient of Variance of all R-R and L-L step distances) vs vehicle [1, 3]: significantly different from vehicle (p<0.01)
average uniformity of step alternation (|0.5-(R-L/R-R)|) vs vehicle [1, 3]: not different from vehicle (p<0.1)
extension reflex vs vehicle [1, 3]: different from vehicle with p<0.09
average duration in movement in an open field test vs vehicle [1, 4]: no significant difference
average front paw grip strength vs vehicle [1, 4]: a significant difference (p<0.05) between vehicle and treatment at 32 days after initiation of treatment
average gait length vs vehicle [1, 4]: no significant difference
average gait width vs vehicle [1, 4]: no significant difference
average latency to fall off a metal wire vs vehicle [1, 4]: no significant difference
average latency to fall off a rotating cylinder (rotarod) vs vehicle [1, 4]: no significant difference
average regularity of step distance vs vehicle [1, 4]: a significant difference (p<0.05) between vehicle and treatment at 81 days after treatments initiation
average uniformity of step alternation vs vehicle [1, 4]: a significant difference (p<0.05) between vehicle and treatment 95 days after treatment initiation
extension reflex vs vehicle [1, 4]: no significant difference
average duration in movement in an open field test vs vehicle [1, 5]: not different from vehicle (p<0.1)
average front paw grip strength vs vehicle [1, 5]: different from vehicle with p<0.055
average gait length vs vehicle [1, 5]: not different from vehicle (p<0.1)
average gait width vs vehicle [1, 5]: not different from vehicle (p<0.1)
average latency to fall off a metal wire vs vehicle [1, 5]: not different from vehicle (p<0.1)
average latency to fall off a rotating cylinder (rotarod) vs vehicle [1, 5]: not different from vehicle (p<0.1)
average regularity of step distance vs vehicle [1, 5]: not different from vehicle (p<0.1)
average uniformity of step alternation (|0.5-(R-L/R-R)|) vs vehicle [1, 5]: significantly different from vehicle (p<0.06)
extension reflex vs vehicle [1, 5]: not different from vehicle (p<0.1)
average duration in movement in an open field test vs vehicle [1, 6]: no significant difference
average front paw grip strength vs vehicle [1, 6]: no significant difference
average gait length vs vehicle [1, 6]: no significant difference
average gait width vs vehicle [1, 6]: no significant difference
average latency to fall off a metal wire vs vehicle [1, 6]: no significant difference
average latency to fall off a rotating cylinder (rotarod) vs vehicle [1, 6]: no significant difference
average regularity of step distance vs vehicle [1, 6]: no significant difference
average uniformity of step alternation vs vehicle [1, 6]: a significant difference (p<0.05) between vehicle and treatment 95 days after treatment initiation
extension reflex vs vehicle [1, 6]: no significant difference
dose response of diastase resistant cell associated mean PAS intensity normalized by z-score [2]: lowered mean normalized PAS intensity in a non-dose responding manner

CO[C@H]1C[C@@H]2CC[C@@H](C)[C@@](O)(O2)C(=O)C(=O)N2CCCC[C@H]2C(=O)O[C@H]([C@H](C)C[C@@H]2CC[C@@H](O)[C@H](OC)C2)CC(=O)[C@H](C)/C=C(\C)[C@@H](O)[C@@H](OC)C(=O)[C@H](C)C[C@H](C)/C=C/C=C/C=C/1C [rapamycin]
toxic effects in APBD mice (APBD mice): toxic effects
